The values below come from US10517952B2, “Nucleophile-triggered degradable materials and methods of making and using the same” (GEORGIA TECH RESEARCH CORPORATION, priority 2014, dated 2019).

Data set [1] in a line: Equilibrium swelling, gel fraction and Mc (Flory-Rehner) of PEG-OND hydrogels. Type of data set: physicochemical. As to conditions: for Mc (apparent molecular weight between elastic crosslinks): calculated with the Flory-Rehner equation from swelling results; for Gel Fraction: mass of dry residue post-swelling/input mass of OND and 4-PEG-SH; for Equilibrium Swelling Ratio: mass post-swelling/mass pre-swelling, deionized water, 4° C., 24 hours, n = 3 gels. The procedure, abridged:
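Gels of 3.5 wt % 4-PEG-SH with bis-, tris- or tetra-OND linkers (1:1 thiol:electrophile) in pH 7.4 PBS with 7% DMSO, cured 20 min RT, then swollen in water at 4 °C for 24 h and weighed. Gel fraction from freeze-dried residual versus input mass. Mc from modified Flory-Rehner equation (χ 0.43, Mn 10,000 g/mol).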

Data set [2] in a line: Calculation of hydrogel mesh size from equilibrium swelling data. As to conditions: for Average mesh size: average for equilibrium swelled hydrogels from linkers 7a, 7b and 8; for Calculated mesh size: equilibrium-swollen gels. It is filed as physicochemical.

`COC(=O)C1=C(C(=O)OC)C2(CNC(=O)CCCC(=O)NCC34OC(C(C(=O)OC)=C3C(=O)OC)C3OC34)OC1C1OC12` (stereo not shown) [Linker 8, Tetramethyl 1,1′-((glutaroylbis(azanediyl))bis(methylene))bis(3,8-dioxatricyclo[3.2.1.0^2,4]oct-6-ene-6,7-dicarboxylate)]: in data set [1], the “Mc (apparent molecular weight between elastic crosslinks)” value is listed as 3900 ± 93 g/mol, the “Gel Fraction” value stood at 0.97 ± 0.01 and the “Equilibrium Swelling Ratio” value is listed as 1.60 ± 0.10. In data set [2], the Average mesh size is listed as 14.0±1.0 nm and the Calculated mesh size was 14.0 ± 0.9 nm.
For `COC(=O)C1=C(C(=O)OC)C2(CNC(=O)CCCC(=O)NCC34C=CC(O3)C(C(=O)OC)=C4C(=O)OC)C=CC1O2` [Linker 7a, Tetramethyl 1,1′-((glutaroylbis(azanediyl))bis(methylene))bis(7-oxabicyclo[2.2.1]hepta-2,5-diene-2,3-dicarboxylate)], in data set [1], the “Mc (apparent molecular weight between elastic crosslinks)” value is listed as 4080 ± 57 g/mol, the “Gel Fraction” value is 0.91 ± 0.03 and the Equilibrium Swelling Ratio turned out to be 1.7 ± 0.04. In data set [2], the Average mesh size is listed as 14.0±1.0 nm and the Calculated mesh size was 15.2 ± 0.9 nm.
